Here are results for 14 compounds from patent US5391817A, “Biaryl phospholipase A2 inhibitors” (Bristol-Myers Squibb, priority 1993, dated 1995).

Structures are written as SMILES.

The term inhibition denotes the change of the read-out against control, counted positive when it falls. Lower therefore signals a weak effect.

For the first assay, the target named is T1, PLA2 (Homo sapiens, UniProt P14555).
T1 construct: The enzyme is isolated from human platelets; from tissue; host or cells: human platelets
T1 sequence (P14555 21-144): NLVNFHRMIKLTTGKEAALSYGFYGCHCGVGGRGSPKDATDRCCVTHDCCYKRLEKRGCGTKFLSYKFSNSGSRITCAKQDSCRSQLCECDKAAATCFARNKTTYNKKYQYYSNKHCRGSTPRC
Nature of the assay: PLA2 Inhibition Assay (14C-oleate labeled E. coli membrane substrate). Format: biochemical. The note with it: 100 μM (sic, Table 6); PLA2 from human platelets; pH 7, 37° C. On the procedure:
The method used is similar to that reported by Franson, et al. [Jesse, R. L. and Franson R. C., Biochim. Biophys. Acta 575: 467-470 (1979); Franson, R. C., Patriarca, P., and Elsback, P., J. Lipid Res. 15: 380-388 (1974)]. The enzyme is isolated from human platelets. The substrate used consists of ^14 C-oleate labeled Escherichia coli membranes. E. coli cells are grown in the presence of ^14 C-oleic acid and then autoclaved to prepare the membranes.
Various concentrations of test compounds are preincubated with PLA2 (3.6 mg/mL in a buffer consisting of 25 mM HEPES (pH 7)), 150 mM NaCl, 5.0 mM CaCl2, and 10% DMSO (v/v, test compound solvent) at 37° C. for 7 minutes. The E. coli substrate is then added (0.1 mM phospholipid, 0,005 mCi ^14 C) and the reaction is then incubated at 37° C. for 30 minutes. The reaction is then terminated by the addition of 1.9 mL tetrahydrofuran (THF), and the entire solution is applied to a solid-phase extraction column (aminopropyl resin, Analytichem). The column is rinsed with an additional 1 mL of THF. The free fatty acid product of the reaction is then eluted from the column with 1 mL 2% acetic acid in THF and collected in a scintillation vial. The amount of free fatty acid product is determined by liquid scintillation counting. The amount of inhibition produced by the test compound is calculated by comparing the counts obtained in the presence of the compound to those obtained in its absence (solvent only). Background counts were determined by performing incubations in the absence of enzyme.
Percent inhibition is determined by the equation: [formula]
As for `CC1(C)CCC(C)(C)c2cc(COc3ccccc3-c3cccc(CC(=O)O)c3)ccc21` [Structure 57, 2-[5,6,7,8-tetrahydro-5,5,8,8-tetramethyl-2-naphthalenyl]methoxy-[1,1'-biphenyl]-3'-acetic acid], the “% Inhibition of PLA2 at 100 .infin.M” value came out at 92%.
On the same count and under the same terms, the value for `CC1(C)CCC(C)(C)c2cc(COc3ccccc3-c3cccc(C(=O)O)c3)ccc21` [Structure 52a, 2-[5,6,7,8-tetrahydro-5,5,8,8-tetramethyl-2-naphthalenyl]methoxy-[1,1'-biphenyl]-3'-carboxylic acid] was 83%; that for `CC1(C)CCC(C)(C)c2cc(COc3ccccc3-c3ccc(C(=O)O)cc3)ccc21` [Structure 52b, 2-[5,6,7,8-tetrahydro-5,5,8,8-tetramethyl-2-naphthalenyl]methoxy-[1,1'-biphenyl]-4'-carboxylic acid] was 66%.

Staying with this assay, now noted: 100 μM; PLA2 from human platelets; pH 7, 37° C.
As to `O=C(O)Cc1cccc(OCc2ccc(OC3CCCC3)c(OC3CCCC3)c2)c1-c1cccc(C(=O)O)c1` [Structure 30b, 2-[(3,4-biscyclopentyloxy)phenyl]methoxy-3'-carboxy-[1,1'-biphenyl]-6-acetic acid], the inhibition at 100 µM worked out at 79%.
As to `O=C(O)CCc1cccc(OCc2ccc(OC3CCCC3)c(OC3CCCC3)c2)c1-c1cccc(C(=O)O)c1` [Structure 37b, 2-[3,4-bis(cyclopentyloxy)phenyl]methoxy-3'-carboxy-[1,1'-biphenyl]-6-propanoic acid], 100 µM produced 51% inhibition.
Same read-out and setting: in the case of `CC(C)=CCOc1ccc(COc2cccc(CCC(=O)O)c2-c2cccc(C(=O)O)c2)cc1OCC=C(C)C` [Structure 37a, 2-[3,4-bis(3-methyl-2-butenyloxy)phenyl]methoxy-3'-carboxy-[1,1'-biphenyl]-6-propanoic acid] it was 55%; in that of `CC1(C)CCC(C)(C)c2cc(COc3ccc(C(=O)O)cc3-c3ccccc3)ccc21` [Structure 44, 2-[5,6,7,8-tetrahydro-5,5,8,8-tetramethyl-2-naphthalenyl]methoxy-[1,1'-biphenyl]-5-carboxylic acid], 70%.
Same read-out and setting: the value for `CC1(C)CCC(C)(C)c2cc(COc3cccc(C(=O)O)c3-c3ccccc3)ccc21` [Structure 14n, 2-(5,6,7,8-tetrahydro-5,5,8,8-tetramethyl-2-naphthalenyl)methoxy-[1,1'-biphenyl]-6-carboxylic acid] was 90%.
The same measure, in the same setting: the value for `CC1(C)CCC(C)(C)c2cc(COc3c(C(=O)O)cccc3-c3ccccc3)ccc21` [Structure 48, 2-[5,6,7,8-tetrahydro-5,5,8,8-tetramethyl-2-naphthalenyl]methoxy-[1,1'-biphenyl]-3-carboxylic acid] was 88%; that for `COc1cc(COc2cccc(C(=O)O)c2-c2cccc(C(=O)O)c2)ccc1C12CC3CC(CC(C3)C1)C2` [Structure 14h, 2-[4-(1-adamantyl)-3-methoxyphenyl]methoxy-[1,1,-biphenyl]-6,3'-dicarboxylic acid] was 62%; that for `CCCCCOc1ccc(COc2cccc(/C=C/C(=O)O)c2-c2cccc(C(=O)O)c2)cc1OCCCCC` [Structure 39c] was 59%.
`CCCCCCCCCCOc1ccc(COc2cccc(CC(=O)O)c2-c2cccc(C(=O)O)c2)cc1` [Structure 30c, 3'-carboxy-2-[4-decyloxyphenyl]methoxy-[1,1'-biphenyl]-6-acetic acid]: the inhibition at 100 µM is 99%.
In the case of `C/C(=C\c1cccc(CC(=O)O)c1-c1cccc(C(=O)O)c1)c1ccc2c(c1)C(C)(C)CCC2(C)C` [Structure 28b, 3'-carboxy-(E)-2-[(5,6,7,8-tetrahydro-5,5,8,8,-tetramethyl-2-naphthalenyl)-1-propenyl]-[1,1'-biphenyl]-6-acetic acid], testing at 100 µM gave an inhibition of 96%.
Compound `O=C(O)/C=C/c1cccc(OCc2ccc(OC3CCCC3)c(OC3CCCC3)c2)c1-c1cccc(C(=O)O)c1` [Structure 39b] returned an inhibition at 100 µM of 86%.
